Results published in PubChem BioAssay (NCI).
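Here, GI50 denotes the concentration required for 50% inhibition of growth. Definition used: TGI = concentration required for complete inhibition of growth.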

Experiments:
Experiment in all cases: DTP human tumour cell line panel, 384-well format
786-0 renal = tested on: 786-0 renal
A498 renal = tested on: A498 renal
A549 NSCLC = tested on: A549 NSCLC
ACHN renal = tested on: ACHN renal
BT-549 breast = tested on: BT-549 breast
CAKI-1 renal = tested on: CAKI-1 renal
CCRF-CEM leukemia = tested on: CCRF-CEM leukemia
COLO 205 colon = tested on: COLO 205 colon
DU-145 prostate = tested on: DU-145 prostate
EKVX NSCLC = tested on: EKVX NSCLC
HCC-2998 colon = tested on: HCC-2998 colon
HCT-116 colon = tested on: HCT-116 colon
HCT-15 colon = tested on: HCT-15 colon
HL-60(TB) leukemia = tested on: HL-60(TB) leukemia
HOP-62 NSCLC = tested on: HOP-62 NSCLC
HOP-92 NSCLC = tested on: HOP-92 NSCLC
HS 578T breast = tested on: HS 578T breast
HT29 colon = tested on: HT29 colon
IGROV1 ovarian = tested on: IGROV1 ovarian
K-562 leukemia = tested on: K-562 leukemia
KM12 colon = tested on: KM12 colon
LOX IMVI melanoma = tested on: LOX IMVI melanoma
M14 melanoma = tested on: M14 melanoma
MALME-3M melanoma = tested on: MALME-3M melanoma
MCF7 breast = tested on: MCF7 breast
MDA-MB-231 breast = tested on: MDA-MB-231 breast
MDA-MB-435 melanoma = tested on: MDA-MB-435 melanoma
MDA-MB-468 breast = tested on: MDA-MB-468 breast
MOLT-4 leukemia = tested on: MOLT-4 leukemia
NCI-H226 lung = tested on: NCI-H226 lung
NCI-H23 lung = tested on: NCI-H23 lung
NCI-H322M lung = tested on: NCI-H322M lung
NCI-H460 NSCLC = tested on: NCI-H460 NSCLC
NCI-H522 lung = tested on: NCI-H522 lung
NCI/ADR-RES ovarian = tested on: NCI/ADR-RES ovarian
OVCAR-3 ovarian = tested on: OVCAR-3 ovarian
OVCAR-4 ovarian = tested on: OVCAR-4 ovarian
OVCAR-5 ovarian = tested on: OVCAR-5 ovarian
OVCAR-8 ovarian = tested on: OVCAR-8 ovarian
PC-3 prostate = tested on: PC-3 prostate
RPMI-8226 leukemia = tested on: RPMI-8226 leukemia
RXF 393 renal = tested on: RXF 393 renal
SF-268 CNS = tested on: SF-268 CNS
SF-295 CNS = tested on: SF-295 CNS
SF-539 CNS = tested on: SF-539 CNS
SK-MEL-2 melanoma = tested on: SK-MEL-2 melanoma
SK-MEL-28 melanoma = tested on: SK-MEL-28 melanoma
SK-MEL-5 melanoma = tested on: SK-MEL-5 melanoma
SK-OV-3 ovarian = tested on: SK-OV-3 ovarian
SN12C renal = tested on: SN12C renal
SNB-19 CNS = tested on: SNB-19 CNS
SNB-75 CNS = tested on: SNB-75 CNS
SR leukemia = tested on: SR leukemia
SW-620 colon = tested on: SW-620 colon
T-47D breast = tested on: T-47D breast
TK-10 renal = tested on: TK-10 renal
U251 glioblastoma = tested on: U251 glioblastoma
UACC-257 melanoma = tested on: UACC-257 melanoma
UACC-62 melanoma = tested on: UACC-62 melanoma
UO-31 renal = tested on: UO-31 renal

O=C(c1ccc(F)c(F)c1Nc1ccc(I)cc1F)N1CC(O)([C@@H]2CCCCN2)C1
GI50 ([…]-0 renal): 1520 nM
TGI (786-0 renal): 5000 nM
GI50 (A498 renal): 472 nM
TGI (A498 renal): 2950 nM
GI50 (A549 NSCLC): 97.5 nM
TGI (A549 NSCLC): 2730 nM
GI50 (ACHN renal): 1490 nM
TGI (ACHN renal): 12200 nM
GI50 (BT-549 breast): 1400 nM
TGI (BT-549 breast): 9160 nM
GI50 (CAKI-1 renal): 565 nM
TGI (CAKI-1 renal): 10400 nM
GI50 (CCRF-CEM leukemia): 3350 nM
TGI (CCRF-CEM leukemia): 7670 nM
GI50 (COLO 205 colon): < 10 nM
TGI (COLO 205 colon): 27.4 nM
GI50 (DU-145 prostate): 1250 nM
TGI (DU-145 prostate): 15500 nM
GI50 (EKVX NSCLC): 1340 nM
TGI (EKVX NSCLC): 14200 nM
GI50 (HCC-2998 colon): 10.2 nM
TGI (HCC-2998 colon): 77 nM
GI50 (HCT-116 colon): 70.3 nM
TGI (HCT-116 colon): 834 nM
GI50 (HCT-15 colon): 1250 nM
TGI (HCT-15 colon): 9730 nM
GI50 (HL-60(TB) leukemia): 10.1 nM
TGI (HL-60(TB) leukemia): 375 nM
GI50 (HOP-62 NSCLC): 403 nM
TGI (HOP-62 NSCLC): 13500 nM
GI50 (HOP-92 NSCLC): 153 nM
TGI (HOP-92 NSCLC): 599 nM
GI50 (HS 578T breast): 4740 nM
TGI (HS 578T breast): 15900 nM
GI50 (HT29 colon): 10.1 nM
TGI (HT29 colon): 4240 nM
GI50 (IGROV1 ovarian): 120 nM
TGI (IGROV1 ovarian): 4510 nM
GI50 (K-562 leukemia): 284 nM
TGI (K-562 leukemia): 1470 nM
GI50 (KM12 colon): 136 nM
TGI (KM12 colon): 6910 nM
TGI (LOX IMVI melanoma): 527 nM
GI50 (M14 melanoma): < 10 nM
TGI (M14 melanoma): 14.6 nM
GI50 (MALME-3M melanoma): < 10 nM
GI50 (MCF7 breast): 3550 nM
TGI (MCF7 breast): 7290 nM
GI50 (MDA-MB-231 breast): 172 nM
TGI (MDA-MB-231 breast): 1360 nM
GI50 (MDA-MB-435 melanoma): < 10 nM
TGI (MDA-MB-435 melanoma): 15800 nM
GI50 (MDA-MB-468 breast): 3890 nM
TGI (MDA-MB-468 breast): 9320 nM
GI50 (MOLT-4 leukemia): 2020 nM
TGI (MOLT-4 leukemia): 4830 nM
GI50 (NCI-H226 lung): 230 nM
TGI (NCI-H226 lung): 6320 nM
GI50 (NCI-H23 lung): 50.5 nM
TGI (NCI-H23 lung): 708 nM
GI50 (NCI-H322M lung): 217 nM
TGI (NCI-H322M lung): 6610 nM
GI50 (NCI-H460 NSCLC): 1270 nM
TGI (NCI-H460 NSCLC): 5740 nM
GI50 (NCI-H522 lung): 2600 nM
TGI (NCI-H522 lung): 17300 nM
GI50 (NCI/ADR-RES ovarian): 3420 nM
TGI (NCI/ADR-RES ovarian): 16100 nM
GI50 (OVCAR-3 ovarian): 5550 nM
TGI (OVCAR-3 ovarian): 17200 nM
GI50 (OVCAR-4 ovarian): 2700 nM
TGI (OVCAR-4 ovarian): 12400 nM
GI50 (OVCAR-5 ovarian): 126 nM
TGI (OVCAR-5 ovarian): 7960 nM
GI50 (OVCAR-8 ovarian): 3860 nM
TGI (OVCAR-8 ovarian): 10500 nM
GI50 (PC-3 prostate): 7650 nM
TGI (PC-3 prostate): 19800 nM
GI50 (RPMI-8226 leukemia): 1050 nM
TGI (RPMI-8226 leukemia): 5220 nM
GI50 (RXF 393 renal): 725 nM
TGI (RXF 393 renal): 2580 nM
GI50 (SF-268 CNS): 8350 nM
TGI (SF-268 CNS): 20500 nM
GI50 (SF-295 CNS): 6200 nM
TGI (SF-295 CNS): 12200 nM
GI50 (SF-539 CNS): 969 nM
TGI (SF-539 CNS): 7010 nM
GI50 (SK-MEL-2 melanoma): 18.2 nM
TGI (SK-MEL-2 melanoma): 52.9 nM
GI50 (SK-MEL-28 melanoma): < 10 nM
TGI (SK-MEL-28 melanoma): 16.3 nM
GI50 (SK-MEL-5 melanoma): < 10 nM
TGI (SK-MEL-5 melanoma): 70.3 nM
GI50 (SK-OV-3 ovarian): 5110 nM
TGI (SK-OV-3 ovarian): 18600 nM
GI50 (SN12C renal): 645 nM
TGI (SN12C renal): 16000 nM
GI50 (SNB-19 CNS): 5490 nM
TGI (SNB-19 CNS): 18500 nM
GI50 (SNB-75 CNS): 1390 nM
TGI (SNB-75 CNS): 6700 nM
GI50 (SR leukemia): 1070 nM
TGI (SR leukemia): 2330 nM
GI50 (SW-620 colon): 41.7 nM
TGI (SW-620 colon): 5830 nM
GI50 (T-47D breast): 4790 nM
TGI (T-47D breast): 12500 nM
GI50 (TK-10 renal): 956 nM
TGI (TK-10 renal): 10900 nM
GI50 (U251 glioblastoma): 820 nM
TGI (U251 glioblastoma): 8280 nM
GI50 (UACC-257 melanoma): < 10 nM
TGI (UACC-257 melanoma): 26.8 nM
GI50 (UACC-62 melanoma): < 10 nM
TGI (UACC-62 melanoma): 161 nM
GI50 (UO-31 renal): 297 nM
TGI (UO-31 renal): 3770 nM
